Measured values reported in US20240052053A1, “ENHANCEMENT OF ANTIBODY-DEPENDENT CELL-MEDIATED CYTOTOXICITY (ADCC)” (IO Biotech ApS, priority 2017, published 2024).
Entries after “also recorded” stand apart in the source; their conditions may differ.

System: U266 myeloma cells
Experiment: 51Cr-release cytotoxic assay with PD-L1-specific CTLs
Assay type: cell-based, human
Details: U266 cells pretreated with IFN-γ
Procedure: The cytotoxicity assay was performed as in Example 1. Briefly, HLA-A2-positive CTLs that were specific to PD-L1 were thawed, rested over-night and used as effector cells against 51 Cr-labeled HLA-A2-positive U266 myeloma cells in different effector to target (E:T)-cell ratios.

Q: How did the “killing of U266 cells by PD-L1 specific CTLs after pretreatment” value turn out when “IFN-γ: Interferon gamma, a major inducer of PD-L1 expression, used to pretreat U266 cells” was run?
A: more susceptible to being killed; also recorded: tendency towards increased killing
